Measured values reported in ChEMBL document CHEMBL1123387 (J Med Chem, 1986).
Square brackets hold non-standard residues; d marks the D form. Peptide text beside a SMILES is read from it. * marks the point of attachment. Sta = CC(C)C[C@H](N)[C@@H](O)CC(=O)O; Isovaleryl = CC(C)CC(=O)*; NHIsopentyl = CC(C)CCN*; Boc = CC(C)(C)OC(=O)*

Columns and labels:
Cathepsin D = biological target: T1, Cathepsin D (Bos taurus, UniProt P80209); assay: Inhibition of cathepsin D.
T1 sequence (P80209 whole entry): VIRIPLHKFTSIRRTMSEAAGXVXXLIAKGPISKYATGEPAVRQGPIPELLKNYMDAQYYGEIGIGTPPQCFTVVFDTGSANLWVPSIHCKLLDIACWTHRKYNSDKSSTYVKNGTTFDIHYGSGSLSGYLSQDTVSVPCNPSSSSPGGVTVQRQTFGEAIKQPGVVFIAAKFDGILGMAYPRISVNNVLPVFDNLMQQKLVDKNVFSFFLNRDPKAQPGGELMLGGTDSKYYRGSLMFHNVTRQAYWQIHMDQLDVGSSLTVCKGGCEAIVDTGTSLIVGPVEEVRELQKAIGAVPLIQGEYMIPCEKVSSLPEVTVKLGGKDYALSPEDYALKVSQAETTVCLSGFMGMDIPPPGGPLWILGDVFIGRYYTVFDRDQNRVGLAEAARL

Pepsin A = Pepsin A (Sus scrofa, UniProt P00791); assay: Compound was tested for inhibition of pepsin.
Pepsin A, sequence (P00791 whole entry): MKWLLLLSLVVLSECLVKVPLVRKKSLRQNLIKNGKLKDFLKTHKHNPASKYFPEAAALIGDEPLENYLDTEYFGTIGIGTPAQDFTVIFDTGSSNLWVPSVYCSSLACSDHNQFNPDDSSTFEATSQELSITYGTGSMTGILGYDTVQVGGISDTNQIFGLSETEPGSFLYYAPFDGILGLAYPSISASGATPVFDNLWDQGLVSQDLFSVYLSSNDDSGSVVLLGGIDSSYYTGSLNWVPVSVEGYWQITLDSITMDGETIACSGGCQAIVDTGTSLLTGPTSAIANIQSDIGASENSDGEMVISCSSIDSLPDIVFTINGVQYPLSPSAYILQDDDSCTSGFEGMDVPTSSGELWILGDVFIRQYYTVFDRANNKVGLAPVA

Structure (SMILES) | Ki (Cathepsin D) | Ki (Pepsin A)
CC(C)CCNC(=O)[C@H](C)NC(=O)C[C@H](O)[C@H](CC(C)C)NC(=O)[C@@H](NC(=O)[C@@H](NC(=O)CC(C)C)C(C)C)C(C)C | 3.7 nM | –
CC(C)CCNC(=O)[C@H](C)NC(=O)C[C@H](O)[C@H](CC(C)C)NC(=O)[C@@H](NC(=O)[C@@H](NC(=O)OC(C)(C)C)C(C)C)C(C)C | 1.1 nM | –
CCC(CC)C(=O)N[C@H](C(=O)N[C@@H](CC(C)C)[C@@H](O)CC(=O)N[C@@H](C)C(=O)NCCC(C)C)C(C)C | 120 nM | –
CC(C)CCNC(=O)[C@H](C)NC(=O)C[C@H](O)[C@H](CC(C)C)NC(=O)[C@@H](NC(=O)C(C)C)C(C)C | 590 nM | –
CC(C)CCNC(=O)[C@H](C)NC(=O)C[C@H](O)[C@H](CC(C)C)NC(=O)[C@@H](NC(=O)OC(C)C)C(C)C | 620 nM | –
CC(C)CCNC(=O)[C@H](C)NC(=O)C[C@H](O)[C@H](CC(C)C)NC(=O)[C@@H](NC(=O)OC(C)(C)C)C(C)C | 2700 nM | –
CCC(C)C(=O)N[C@H](C(=O)N[C@@H](CC(C)C)[C@@H](O)CC(=O)N[C@@H](C)C(=O)NCCC(C)C)C(C)C (stereo partly specified) | 230 nM | –
CC(C)CCNC(=O)[C@H](C)NC(=O)C[C@H](O)[C@H](CC(C)C)NC(=O)[C@@H](NC(=O)CC(C)C)C(C)C | 220 nM | –
CC(C)CCNC(=O)[C@H](C)NC(=O)C[C@H](O)[C@@H](Cc1ccccc1)NC(=O)[C@H](NC(=O)CC(C)C)C(C)C | 52 nM | –
CC(C)CCNC(=O)[C@H](C)NC(=O)C[C@H](O)[C@H](Cc1ccccc1)NC(=O)[C@H](NC(=O)CC(C)C)C(C)C | 1070 nM | –
CC(C)CCNC(=O)[C@H](C)NC(=O)C[C@H](O)[C@@H](Cc1ccccc1)NC(=O)[C@@H](NC(=O)OC(C)(C)C)C(C)C | 4860 nM | –
CC(C)CCNC(=O)[C@H](C)NC(=O)C[C@@H](O)[C@@H](CC(C)C)NC(=O)[C@@H](NC(=O)[C@@H](NC(=O)OC(C)(C)C)C(C)C)C(C)C | 445 nM | –
CC(C)CCNC(=O)[C@H](C)NC(=O)C[C@H](O)[C@@H](CC(C)C)NC(=O)[C@@H](NC(=O)[C@@H](NC(=O)CC(C)C)C(C)C)C(C)C | > 100 nM | –
CC(C)CCNC(=O)[C@H](C)NC(=O)C[C@H](O)[C@H](Cc1ccccc1)NC(=O)[C@@H](NC(=O)OC(C)(C)C)C(C)C | 370 nM | –
CC(C)CCNC(=O)[C@H](C)NC(=O)C[C@@H](O)[C@@H](CC(C)C)NC(=O)[C@@H](NC(=O)CC(C)C)C(C)C | 1400 nM | –
CC(C)CCNC(=O)[C@H](C)NC(=O)C[C@H](C)[C@@H](CC(C)C)NC(=O)[C@@H](NC(=O)[C@@H](NC(=O)CC(C)C)C(C)C)C(C)C | 214 nM | –
CC(C)CCNC(=O)[C@H](C)NC(=O)C[C@H](C)[C@H](CC(C)C)NC(=O)[C@@H](NC(=O)[C@@H](NC(=O)CC(C)C)C(C)C)C(C)C | 400 nM | –
CC(C)CCNC(=O)[C@H](C)NC(=O)C[C@H](O)[C@@H](CC(C)C)NC(=O)[C@@H](NC(=O)CC(C)C)C(C)C | 2100 nM | –

Structure (SMILES) | Ki (Cathepsin D) | Ki (Pepsin A)
CC(C)CCNC(=O)[C@H](C)NC(=O)C[C@H](C)[C@H](Cc1ccccc1)NC(=O)[C@@H](NC(=O)OC(C)(C)C)C(C)C | 930 nM | –
CC(C)CCNC(=O)[C@H](C)NC(=O)C[C@H](O)[C@@H](Cc1ccccc1)NC(=O)[C@@H](NC(=O)[C@@H](NC(=O)OC(C)(C)C)C(C)C)C(C)C | 95 nM | –
CC(C)CCNC(=O)[C@H](C)NC(=O)C[C@H](O)[C@H](Cc1ccccc1)NC(=O)[C@@H](NC(=O)[C@@H](NC(=O)OC(C)(C)C)C(C)C)C(C)C | 2.1 nM | –
CC(C)CCNC(=O)[C@H](C)NC(=O)C[C@H](O)[C@@H](Cc1ccccc1)NC(=O)[C@@H](NC(=O)[C@@H](NC(=O)CC(C)C)C(C)C)C(C)C | 100 nM | –
CC(C)CCNC(=O)[C@H](C)NC(=O)C[C@H](O)[C@H](Cc1ccccc1)NC(=O)[C@@H](NC(=O)[C@@H](NC(=O)CC(C)C)C(C)C)C(C)C | 1 nM | –
CC(C)CCNC(=O)[C@H](C)NC(=O)CC(=O)[C@H](CC(C)C)NC(=O)[C@@H](NC(=O)[C@@H](NC(=O)CC(C)C)C(C)C)C(C)C | 25 nM | –
CC(C)CCNC(=O)[C@H](C)NC(=O)C[C@H](O)[C@H](CC(C)C)NC(=O)[C@@H](NC(=O)C(C)(C)C)C(C)C | 110 nM | –
COC(=O)[C@H](C)NC(=O)C[C@H](O)[C@H](CC(C)C)NC(=O)[C@@H](NC(=O)CC(C)C)C(C)C | 1800 nM | –
CC(C)CCNC(=O)[C@H](C)NC(=O)C(C(=O)[C@H](CC(C)C)NC(=O)[C@@H](NC(=O)[C@@H](NC(=O)CC(C)C)C(C)C)C(C)C)[S+](C)C (stereo partly specified) | 107 nM | –
CC(C)CCNC(=O)[C@H](C)NC(=O)C[C@H](O)[C@H](CC(C)C)NC(=O)[C@H](C)NC(=O)[C@H](C)NC(=O)[C@H](Cc1ccccc1)NC(=O)OC(C)(C)C (Boc-FAA[Sta]A-NHIsopentyl) | 100 nM | 3.3 nM
COC(=O)[C@H](CC(C)C)NC(=O)[C@@H](NC(=O)[C@H](Cc1ccccc1)NC(=O)C[C@H](O)[C@H](CC(C)C)NC(=O)[C@H](C)NC(=O)[C@H](C)NC(=O)[C@H](Cc1ccccc1)NC(=O)OC(C)(C)C)C(C)C (Boc-FAA[Sta]FVL-OMe) | 60 nM | 1.7 nM
COC(=O)[C@H](CC(C)C)NC(=O)[C@@H](NC(=O)C[C@H](O)[C@H](CC(C)C)NC(=O)[C@H](C)NC(=O)[C@H](C)NC(=O)[C@H](Cc1ccccc1)NC(=O)OC(C)(C)C)C(C)C (Boc-FAA[Sta]VL-OMe) | 12 nM | 2.8 nM
COC(=O)[C@H](CC(C)C)NC(=O)[C@@H](NC(=O)[C@H](Cc1ccccc1)NC(=O)C[C@H](O)[C@H](CC(C)C)NC(=O)[C@H](C)NC(=O)[C@H](Cc1ccccc1)NC(=O)[C@H](Cc1ccccc1)NC(=O)OC(C)(C)C)C(C)C (Boc-FFA[Sta]FVL-OMe) | 12 nM | 24 nM
COC(=O)[C@H](CC(C)C)NC(=O)[C@@H](NC(=O)[C@H](Cc1ccccc1)NC(=O)C[C@H](O)[C@H](CC(C)C)NC(=O)[C@H](C)NC(=O)[C@H](CC(C)C)NC(=O)[C@H](Cc1ccccc1)NC(=O)OC(C)(C)C)C(C)C (Boc-FLA[Sta]FVL-OMe) | 5.8 nM | 0.64 nM
COC(=O)[C@H](C)NC(=O)C[C@H](O)[C@H](CC(C)C)NC(=O)[C@@H](NC(=O)[C@@H](NC(=O)CC(C)C)C(C)C)C(C)C (Isovaleryl-VV[Sta]A-OMe) | 90 nM | –
COC(=O)[C@H](Cc1ccccc1)NC(=O)[C@H](C)NC(=O)C[C@H](O)[C@H](CC(C)C)NC(=O)[C@@H](NC(=O)CC(C)C)C(C)C (Isovaleryl-V[Sta]AF-OMe) | 23 nM | –
COC(=O)[C@H](CC(C)C)NC(=O)[C@H](C)NC(=O)C[C@H](O)[C@H](CC(C)C)NC(=O)[C@@H](NC(=O)CC(C)C)C(C)C (Isovaleryl-V[Sta]AL-OMe) | 43 nM | –
CCOC(=O)C[C@H](O)[C@H](CC(C)C)NC(=O)[C@@H](NC(=O)[C@@H](NC(=O)CC(C)C)C(C)C)C(C)C (Isovaleryl-Val-Val-[Sta]-OEt) | 180 nM | –
